# Patent US6949522B2, “β-2′- or 3′-halonucleosides” (Pharmasset, Inc., priority 2001, dated 2005)
# Experiment: in vitro
# Type: cell-based, African green monkey
# Conditions: African green monkey, Cytotoxicity (IC50) Vero
smiles,measurement,value
"Cc1cn([C@H]2C[C@H](N=[N+]=[N-])[C@@H](CO)O2)c(=O)[nH]c1=O [AZT, 3′-azido-3′-deoxythymidine, reference compound]",IC50 at 3 days,28 µM
